# Experimental data taken from patent US6514913B1, “Weed growth inhibitory compositions” (Marubeni Agrotec Corporation, priority 1998, dated 2003).
# How the values were obtained:
# [1] = system: Japanese lawngrass; test: Pot test in greenhouse, lawn phytotoxicity (Test Example 2); assay type: in vivo, Zoysia japonica; set-up: key: −:None; ±:Very slight; +:Slight; 2+:Moderate; 3+:Heavy; ×:Dead; conditions: flowable of Preparation Example 3 on bred lawn sod in pots, 30 days after treatment
# Text: (§1) Plastic pots having a size of 100 m^2/5000 were filled with soil of an upland farm, and planted with a lawn sod withdrawn by a hole cutter from various bred turfs. The planted pots were bred and managed in a greenhouse for about 1 month, and then the lawn grasses were cut to the same height to use the pots as sample pots. On the day of the cutting, a predetermined amount of the flowable prepared by the method described in the Preparation Example 3 applied to the sample pots in an amount of 250 ml/m^2 of dilution with water. Then, the pots were allowed to stand in the greenhouse, and sprinkled with water at the appropriate times. Thirty days after treatment with the composition, its phytotoxicity to the lawn grasses was observed. Evaluations of the phytotoxicity to the lawn grasses in the table were made according to the following criteria:
# [2] = system: Bermudagrass; test: as above; assay type: in vivo; set-up: key: −:None; ±:Very slight; +:Slight; 2+:Moderate; 3+:Heavy; ×:Dead; conditions: flowable of Preparation Example 3 on bred lawn sod in pots, 30 days after treatment
# Text: as §1
# [3] = system: flat-sedge; test: Pot test in greenhouse, weed growth inhibition (Test Example 1); assay type: in vivo, Cyperus microiria; conditions: flowable of Preparation Example 3, soil surface one day after sowing, 30 days after treatment
# Text: (§2) Plastic pots having a size of 100 m^2/3000 were filled with soil of an upland farm, and the surface of the soil was flattened. Then, the soil surfaces were sowed with weed seeds of annual bluegrass, foxtail, and flat-sedge. After sowing, the seeds were covered with soil to a height of about 5 mm. Also, the rhizomes of Cyperus brevifolius were buried to a depth of about 1 cm. One day after sowing, a predetermined amount of the flowable prepared by the method described in the Preparation Example 3 was applied to the soil surface in an amount of 250 ml/m^2 of dilution with water. Then, the pots were allowed to stand in the greenhouse, and sprinkled with water at the appropriate times. Thirty days after treatment with the composition, its growth inhibition effect was observed. The growth inhibition effect in the table was evaluated according to the following criteria:
# (§3) Evaluation Criteria for Weed Growth Inhibition Effect: […]
# [4] = system: Perennial ryegrass; test: Pot test in greenhouse, lawn phytotoxicity (Test Example 2); assay type: in vivo, Lolium SPP.; set-up: key: −:None; ±:Very slight; +:Slight; 2+:Moderate; 3+:Heavy; ×:Dead; conditions: flowable of Preparation Example 3 on bred lawn sod in pots, 30 days after treatment
# Text: as §1
# [5] = system: Tall fescue; test: as above; assay type: in vivo, Festuca arundinacea; set-up: key: −:None; ±:Very slight; +:Slight; 2+:Moderate; 3+:Heavy; ×:Dead; conditions: flowable of Preparation Example 3 on bred lawn sod in pots, 30 days after treatment
# Text: as §1
# [6] = system: Bentgrass; test: as above; assay type: in vivo, Agrostis L.; set-up: key: −:None; ±:Very slight; +:Slight; 2+:Moderate; 3+:Heavy; ×:Dead; conditions: flowable of Preparation Example 3 on bred lawn sod in pots, 30 days after treatment
# Text: as §1
# [7] = system: Kentucky bluegrass; test: as above; assay type: in vivo, Poa pratensis; set-up: key: −:None; ±:Very slight; +:Slight; 2+:Moderate; 3+:Heavy; ×:Dead; conditions: flowable of Preparation Example 3 on bred lawn sod in pots, 30 days after treatment
# Text: as §1
# [8] = system: annual bluegrass; test: Field test, lawn grass seed overseeding test, weed growth inhibition (Test Example 4); assay type: in vivo, Poa annua L.; conditions: 30 days after treatment
# Procedure: Evaluation Criteria for Weed Growth Inhibition Effect:
# A land of breeding of South Japanese lawngrass was divided into plots of 1 m^2 (1×1 m), and seeds of perennial ryegrass or tall fescue, and seeds of annual bluegrass as a weed were sowed on the entire surface of each plot. On the day of sowing, a predetermined amount of the flowable prepared by the method described in the Preparation Example 3 was applied in an amount of 250 ml/m^2 of dilution with water. Thirty days after treatment with the composition, its weed growth inhibition effect and lawn phytotoxicity were observed. Evaluations of the weed growth inhibition effect and lawn phytotoxicity in the table were made according to mentioned criteria.
# [9] = system: annual bluegrass; test: Pot test in greenhouse, weed growth inhibition (Test Example 1); assay type: in vivo, Poa annua L.; conditions: flowable of Preparation Example 3, soil surface one day after sowing, 30 days after treatment
# Text: as §2, §3
# [10] = system: South Japanese lawngrass; test: Pot test in greenhouse, lawn phytotoxicity (Test Example 2); assay type: in vivo, Zoysia matrella; set-up: key: −:None; ±:Very slight; +:Slight; 2+:Moderate; 3+:Heavy; ×:Dead; conditions: flowable of Preparation Example 3 on bred lawn sod in pots, 30 days after treatment
# Text: as §1
# [11] = system: foxtail; test: Pot test in greenhouse, weed growth inhibition (Test Example 1); assay type: in vivo; conditions: flowable of Preparation Example 3, soil surface one day after sowing, 30 days after treatment
# Text: as §2, §3
# [12] = system: Cyperus brevifolius; test: as above; assay type: in vivo; conditions: flowable of Preparation Example 3, soil surface, rhizomes buried about 1 cm, 30 days after treatment
# Text: as §2, §3
# [13] = 100 g active ingredient/1000 m^2
# [14] = 250 g active ingredient/1000 m^2
# [15] = 500 g active ingredient/1000 m^2
# [16] = 750 g active ingredient/1000 m^2
# [17] = 1000 g active ingredient/1000 m^2
# [18] = 2000 g active ingredient/1000 m^2
# [19] = 50 g active ingredient/1000 m^2
structure (smiles),measurement,setting,value
"CC(C)(NC(=O)NCc1ccccc1Cl)c1ccccc1 [cumyluron, 1-(2-chlorobenzyl)-3-(1-methyl-1-phenylethyl)urea]",Lawn phytotoxicity Japanese lawngrass,[1]; [13],−
same,Lawn phytotoxicity Japanese lawngrass,[1]; [14],−
same,Lawn phytotoxicity Japanese lawngrass,[1]; [15],−
same,Lawn phytotoxicity Japanese lawngrass,[1]; [16],−
same,Lawn phytotoxicity Japanese lawngrass,[1]; [17],−
same,Lawn phytotoxicity Japanese lawngrass,[1]; [18],−
same,Lawn phytotoxicity Bermuda-grass,[2]; [13],−
same,Lawn phytotoxicity Bermuda-grass,[2]; [14],−
same,Lawn phytotoxicity Bermuda-grass,[2]; [15],−
same,Lawn phytotoxicity Bermuda-grass,[2]; [16],−
same,Lawn phytotoxicity Bermuda-grass,[2]; [17],−
same,Lawn phytotoxicity Bermuda-grass,[2]; [18],−
same,Inhibitory effect flat-sedge,[3]; [19],10 (10:100% inhibition)
same,Inhibitory effect flat-sedge,[3]; [13],10 (10:100% inhibition)
same,Inhibitory effect flat-sedge,[3]; [14],10 (10:100% inhibition)
same,Inhibitory effect flat-sedge,[3]; [15],10 (10:100% inhibition)
same,Inhibitory effect flat-sedge,[3]; [16],10 (10:100% inhibition)
same,Inhibitory effect flat-sedge,[3]; [17],10 (10:100% inhibition)
same,Lawn phytotoxicity Perennial ryegrass,[4]; [13],−
same,Lawn phytotoxicity Perennial ryegrass,[4]; [14],−
same,Lawn phytotoxicity Perennial ryegrass,[4]; [15],−
same,Lawn phytotoxicity Perennial ryegrass,[4]; [16],−
same,Lawn phytotoxicity Perennial ryegrass,[4]; [17],−
same,Lawn phytotoxicity Perennial ryegrass,[4]; [18],−
same,Lawn phytotoxicity Tall fescue,[5]; [13],−
same,Lawn phytotoxicity Tall fescue,[5]; [14],−
same,Lawn phytotoxicity Tall fescue,[5]; [15],−
same,Lawn phytotoxicity Tall fescue,[5]; [16],−
same,Lawn phytotoxicity Tall fescue,[5]; [17],−
same,Lawn phytotoxicity Tall fescue,[5]; [18],−
same,Lawn phytotoxicity Bent-grass,[6]; [13],−
same,Lawn phytotoxicity Bent-grass,[6]; [14],−
same,Lawn phytotoxicity Bent-grass,[6]; [15],−
same,Lawn phytotoxicity Bent-grass,[6]; [16],−
same,Lawn phytotoxicity Bent-grass,[6]; [17],−
same,Lawn phytotoxicity Bent-grass,[6]; [18],−
same,Lawn phytotoxicity Kentucky bluegrass,[7]; [13],−
same,Lawn phytotoxicity Kentucky bluegrass,[7]; [14],−
same,Lawn phytotoxicity Kentucky bluegrass,[7]; [15],−
same,Lawn phytotoxicity Kentucky bluegrass,[7]; [16],−
same,Lawn phytotoxicity Kentucky bluegrass,[7]; [17],−
same,Lawn phytotoxicity Kentucky bluegrass,[7]; [18],−
same,Inhibitory effect annual bluegrass,"[8]; 100 g active ingredient/1000 m^2, flowable of Preparation Example 3 applied on the day of sowing",10 (10:100% inhibition)
same,Inhibitory effect annual bluegrass,"[8]; 250 g active ingredient/1000 m^2, flowable of Preparation Example 3 applied on the day of sowing",10 (10:100% inhibition)
same,Inhibitory effect annual bluegrass,"[8]; 500 g active ingredient/1000 m^2, flowable of Preparation Example 3 applied on the day of sowing",10 (10:100% inhibition)
same,Inhibitory effect annual bluegrass,"[8]; 750 g active ingredient/1000 m^2, flowable of Preparation Example 3 applied on the day of sowing",10 (10:100% inhibition)
same,Inhibitory effect annual bluegrass,"[8]; 1000 g active ingredient/1000 m^2, flowable of Preparation Example 3 applied on the day of sowing",10 (10:100% inhibition)
same,Inhibitory effect annual bluegrass,[9]; [19],9 (9:90% inhibition)
same,Inhibitory effect annual bluegrass,[9]; [13],10 (10:100% inhibition)
same,Inhibitory effect annual bluegrass,[9]; [14],10 (10:100% inhibition)
same,Inhibitory effect annual bluegrass,[9]; [15],10 (10:100% inhibition)
same,Inhibitory effect annual bluegrass,[9]; [16],10 (10:100% inhibition)
same,Inhibitory effect annual bluegrass,[9]; [17],10 (10:100% inhibition)
same,Lawn phytotoxicity South Japanese lawngrass,[10]; [13],−
same,Lawn phytotoxicity South Japanese lawngrass,[10]; [14],−
same,Lawn phytotoxicity South Japanese lawngrass,[10]; [15],−
same,Lawn phytotoxicity South Japanese lawngrass,[10]; [16],−
same,Lawn phytotoxicity South Japanese lawngrass,[10]; [17],−
same,Lawn phytotoxicity South Japanese lawngrass,[10]; [18],−
same,Inhibitory effect foxtail,[11]; [19],9 (9:90% inhibition)
same,Inhibitory effect foxtail,[11]; [13],10 (10:100% inhibition)
same,Inhibitory effect foxtail,[11]; [14],10 (10:100% inhibition)
same,Inhibitory effect foxtail,[11]; [15],10 (10:100% inhibition)
same,Inhibitory effect foxtail,[11]; [16],10 (10:100% inhibition)
same,Inhibitory effect foxtail,[11]; [17],10 (10:100% inhibition)
same,Inhibitory effect Cyperus brevifolius,[12]; [19],1 (1:10% inhibition)
same,Inhibitory effect Cyperus brevifolius,[12]; [13],5 (5:50% inhibition)
same,Inhibitory effect Cyperus brevifolius,[12]; [14],9 (9:90% inhibition)
same,Inhibitory effect Cyperus brevifolius,[12]; [15],10 (10:100% inhibition)
same,Inhibitory effect Cyperus brevifolius,[12]; [16],10 (10:100% inhibition)
same,Inhibitory effect Cyperus brevifolius,[12]; [17],10 (10:100% inhibition)
